From publication PMC4498294, “Tetrahydroisoquinolines affect the whole-cell phenotype of Mycobacterium tuberculosis by inhibiting the ATP-dependent MurE ligase” (Journal of Antimicrobial Chemotherapy, 2015)
≈ marks a conversion by molar mass, not a printed value. Like-named read-outs stand apart in the source and are kept apart here. Marks after values point to notes of the source that are not given here.

Experiments:
M. bovis BCG Pasteur = assay: microbe, parasite or virus in culture; type: cell-based; details: Mycobacterium tuberculosis variant bovis BCG, BCG
M. bovis BCG = type: cell-based; details: M. bovis BCG treated at 4 × MIC for 48 h (D-cycloserine 100 mg/L, 39 160 mg/L); 100 cells
CYP 2D6 = molecular target: T1, CYP 2D6 (Homo sapiens, UniProt P10635); assay: CYP450 inhibition assay, CYP 2D6; type: in vitro ADME; design: dose or concentration left out as unconfirmed; details: CYP baculosomes with recombinant human CYP2D6, probe fluorogenic substrate (not named); human recombinant enzymes; read-out: Mean % inhibtion CYP 2D6
T1 construct: purchased; host or cells: baculosomes (insect-cell microsomes; own knowledge)
Description: (§1) The compounds originally dissolved in DMSO were added to PBS to give a resulting concentration of […]. CYP baculosomes containing cDNA for a single human P450 isozyme, the fluorogenic substrate and the NADPH were added to the test solution. The reaction was incubated at 37°C for at least 1 h. Fluorogenic substrates metabolized by CYP enzymes result in highly fluorescent products in aqueous solution. The inhibition of CYP prevents this metabolism, which corresponds to a decrease in the fluorescence signal. The fluorescence was measured on a plate reader.

[1] = system: murine macrophage cell line RAW264.7; assay: Eukaryotic cell toxicity assay, RAW264.7; type: cell-based; details: Mus musculus, read-out: GIC50 RAW264.7
[2] = MDCK cell permeability assay; type: in vitro ADME, canine; details: dog, MDCK-MDR1; MDCK MDR-1 monolayer, class
[3] = system: MDCK cells carrying the MDR-1 gene; assay: MDCK cell permeability assay; type: in vitro ADME, canine; details: MDCK MDR-1 monolayer, 10 μM, 30 min, apical to basolateral
MDR-1 = assay: MDCK cell permeability assay; type: in vitro ADME, canine; details: dog, MDCK-MDR1, MDCK MDR-1 monolayer, 10 μM, 30 min; for Papp A→B at 30 min, 10 μM: apical to basolateral; for Papp B→A at 30 min, 10 μM: basolateral to apical
[4] = Human microsome stability assay; type: in vitro ADME; design: half-life: dose or concentration left out as unconfirmed; details: for half-life: human, liver microsomes, read-out: t1/2 microsomes
Description: (§2) Microsomes and NADPH were then added to the solution and the reaction was incubated at 37°C for up to 60 min. Acetonitrile (300 μL) with internal standard was added to stop the incubation. The samples were centrifuged and the supernatant was then analysed by HPLC-MS/MS to detect the parent compound.

CYP 2C9 = molecular target: T2, CYP 2C9 (Homo sapiens, UniProt P11712); assay: CYP450 inhibition assay, CYP 2C9; type: in vitro ADME; design: dose or concentration left out as unconfirmed; details: CYP baculosomes with recombinant human CYP2C9, probe fluorogenic substrate (not named); human recombinant enzymes; read-out: Mean % inhibtion CYP 2C9
T2 construct: purchased; host or cells: baculosomes (insect-cell microsomes; own knowledge)
Description: as §1

[5] = molecular target: MurE (Rv2158c) protein of M. tuberculosis H37Rv (Mycobacterium tuberculosis, UniProt P9WJL3); assay: Mtb-MurE HPLC inhibition assay; type: biochemical; details: HPLC assay, 37°C 30 min
P-glycoprotein = P-glycoprotein (Homo sapiens, UniProt P08183); assay: in vitro; details: dog, MDCK-MDR1
Description: All dose solutions contained 10 μM propranolol as an internal standard. MDCK cells carrying the MDR-1 gene were used to seed filters that were exposed to a fixed volume of the donor solution containing the compound of interest. The compound's ability to traverse the monolayer and appear in the receiver compartment was measured over a 30 min period. Bidirectional permeability measurements were derived by examining the transfer of compound from both the apical to the basolateral compartment and vice versa. Sample analysis was conducted using LC-MS/MS with the detection settings optimized for each test compound.

[6] = Aqueous kinetic solubility; type: physicochemical; details: aqueous with cosolvent or surfactant or cyclodextrin, kinetic from dmso stock, 5% DMSO in PBS, 21°C
Description: The compounds were equilibrated in 5% DMSO in PBS at 21°C for 24 h. The samples were then centrifuged at 15000 g for 10 min. A 100 μL sample of the supernatant was carefully collected and the soluble amount of compound quantified using LC-MS/MS. A standard curve for each compound was prepared in 100% acetonitrile. Solubility results are reported as low (<0.1 mg/mL), medium (0.1–0.5 mg/mL) and high (>0.5 mg/mL).

CYP 2C19 = molecular target: T3, CYP 2C19 (Homo sapiens, UniProt P33261); assay: CYP450 inhibition assay, CYP 2C19; type: in vitro ADME; design: dose or concentration left out as unconfirmed; details: CYP baculosomes with recombinant human CYP2C19, probe fluorogenic substrate (not named); human recombinant enzymes; read-out: Mean % inhibtion CYP 2C19
T3 construct: purchased; host or cells: baculosomes (insect-cell microsomes; own knowledge)
Description: as §1

CYP 1A2 = molecular target: T4, CYP 1A2 (Homo sapiens, UniProt P05177); assay: CYP450 inhibition assay, CYP 1A2; type: in vitro ADME; design: dose or concentration left out as unconfirmed; details: CYP baculosomes with recombinant human CYP1A2, probe fluorogenic substrate (not named); human recombinant enzymes; read-out: Mean % inhibtion CYP 1A2
T4 construct: purchased; host or cells: baculosomes (insect-cell microsomes; own knowledge)
T4 sequence (P05177 1-516): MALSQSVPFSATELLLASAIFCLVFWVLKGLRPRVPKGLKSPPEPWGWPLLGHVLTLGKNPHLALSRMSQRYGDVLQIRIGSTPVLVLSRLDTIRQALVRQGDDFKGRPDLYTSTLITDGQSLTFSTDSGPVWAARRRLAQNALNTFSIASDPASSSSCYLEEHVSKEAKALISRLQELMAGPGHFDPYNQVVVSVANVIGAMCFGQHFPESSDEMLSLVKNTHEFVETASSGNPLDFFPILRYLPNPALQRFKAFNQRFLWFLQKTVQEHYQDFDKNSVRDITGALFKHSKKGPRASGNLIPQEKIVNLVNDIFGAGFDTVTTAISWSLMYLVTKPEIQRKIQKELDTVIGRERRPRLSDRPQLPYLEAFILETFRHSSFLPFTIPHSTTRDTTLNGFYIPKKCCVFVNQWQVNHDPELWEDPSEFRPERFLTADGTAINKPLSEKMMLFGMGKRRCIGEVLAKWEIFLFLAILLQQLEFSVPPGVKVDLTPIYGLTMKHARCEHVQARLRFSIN
Description: as §1

[7] = Human hepatocyte stability assay; type: in vitro ADME; design: half-life / hepatocyte CLint: dose or concentration left out as unconfirmed; details: for hepatic extraction ratio: hepatocyte stability assay; for half-life / hepatocyte CLint: human, hepatocytes; for half-life: read-out: t1/2 hepatocytes; for hepatocyte CLint: in vivo hepatic intrinsic clearance prediction values
Description: as §2, with “The compounds originally dissolved in DMSO were added to PBS to give a resulting concentration of 1 mM. Hepatocytes” for “Microsomes and NADPH”, “120” for “60”, “Acetonitrile” for “Acetonitrile (300 μL)”

CYP 3A4 = molecular target: T5, CYP 3A4 (Homo sapiens, UniProt P08684); assay: CYP450 inhibition assay, CYP 3A4; type: in vitro ADME; design: dose or concentration left out as unconfirmed; details: CYP baculosomes with recombinant human CYP3A4, probe fluorogenic substrate (not named); human recombinant enzymes; read-out: Mean % inhibtion CYP 3A4
T5 construct: purchased; host or cells: baculosomes (insect-cell microsomes; own knowledge)
Description: as §1

M. tuberculosis H37Rv = assay: SPOTi growth inhibition assay, M. tuberculosis H37Rv; type: cell-based; details: Mycobacterium tuberculosis, H37RV, SPOTi, read-out: MIC M. tuberculosis H37Rv
[8] = system: murine macrophage cell line RAW264.7; design: method as in Gupta and Bhakta.[27]; details: ref Gupta and Bhakta.[27]; cited from earlier work
M. smegmatis mc^2155 = assay: SPOTi assay, M. smegmatis; type: cell-based, Mycobacterium smegmatis; details: Mycolicibacterium smegmatis, MC^2155
M. aurum = assay: SPOTi assay, M. aurum; type: cell-based, Mycobacterium aurum; details: Mycolicibacterium aurum
[9] = 336 h, read-out: MIC M. bovis BCG, SPOTi, 2 weeks at 37°C
[10] = RAW264.7, value in square brackets
[11] = murine macrophage cell line RAW264.7
[12] = read-out: MIC M. bovis BCG, SPOTi, value in square brackets

MurE (Rv2158c) protein of M. tuberculosis H37Rv, sequence (P9WJL3 whole entry, looked up): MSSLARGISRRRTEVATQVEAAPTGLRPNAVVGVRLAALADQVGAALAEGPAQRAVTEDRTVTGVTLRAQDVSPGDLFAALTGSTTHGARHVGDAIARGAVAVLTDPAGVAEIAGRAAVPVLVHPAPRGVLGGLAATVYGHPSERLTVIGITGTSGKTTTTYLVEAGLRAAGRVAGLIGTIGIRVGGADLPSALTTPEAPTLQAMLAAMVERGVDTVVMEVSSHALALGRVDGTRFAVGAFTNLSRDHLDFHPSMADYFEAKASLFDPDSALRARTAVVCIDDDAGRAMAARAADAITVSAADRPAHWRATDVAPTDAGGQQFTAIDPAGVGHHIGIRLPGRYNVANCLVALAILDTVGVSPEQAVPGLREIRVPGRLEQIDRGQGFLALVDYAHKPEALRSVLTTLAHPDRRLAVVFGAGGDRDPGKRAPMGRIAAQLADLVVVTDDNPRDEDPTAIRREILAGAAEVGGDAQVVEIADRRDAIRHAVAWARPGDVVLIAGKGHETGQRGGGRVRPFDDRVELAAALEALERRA
T1 sequence (P10635 whole entry): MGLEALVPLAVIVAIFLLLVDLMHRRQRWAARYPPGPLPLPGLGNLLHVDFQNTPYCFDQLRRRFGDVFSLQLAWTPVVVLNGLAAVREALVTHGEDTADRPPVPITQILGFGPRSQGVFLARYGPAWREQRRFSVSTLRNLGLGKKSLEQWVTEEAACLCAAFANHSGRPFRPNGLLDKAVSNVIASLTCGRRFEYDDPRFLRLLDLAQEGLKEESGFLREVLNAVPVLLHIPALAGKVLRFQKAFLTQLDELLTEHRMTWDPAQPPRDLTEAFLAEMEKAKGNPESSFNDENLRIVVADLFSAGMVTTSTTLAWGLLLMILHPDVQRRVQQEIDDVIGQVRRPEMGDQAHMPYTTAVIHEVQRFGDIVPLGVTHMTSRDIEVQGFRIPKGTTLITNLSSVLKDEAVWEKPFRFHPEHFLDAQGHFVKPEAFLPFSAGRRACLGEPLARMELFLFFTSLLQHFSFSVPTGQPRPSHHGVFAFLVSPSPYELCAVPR
T3 sequence (P33261 whole entry): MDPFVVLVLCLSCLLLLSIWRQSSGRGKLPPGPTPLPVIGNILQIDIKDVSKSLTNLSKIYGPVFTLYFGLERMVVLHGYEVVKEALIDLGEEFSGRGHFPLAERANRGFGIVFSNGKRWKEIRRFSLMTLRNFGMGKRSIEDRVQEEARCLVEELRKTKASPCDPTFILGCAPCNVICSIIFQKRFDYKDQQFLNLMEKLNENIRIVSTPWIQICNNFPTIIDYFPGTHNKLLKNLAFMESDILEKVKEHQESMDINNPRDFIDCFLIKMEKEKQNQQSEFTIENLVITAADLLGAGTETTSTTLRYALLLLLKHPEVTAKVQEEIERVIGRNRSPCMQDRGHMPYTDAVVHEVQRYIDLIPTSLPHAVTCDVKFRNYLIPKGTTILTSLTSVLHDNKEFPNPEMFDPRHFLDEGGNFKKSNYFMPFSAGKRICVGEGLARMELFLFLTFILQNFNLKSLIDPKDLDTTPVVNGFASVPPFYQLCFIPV
T2 sequence (P11712 whole entry): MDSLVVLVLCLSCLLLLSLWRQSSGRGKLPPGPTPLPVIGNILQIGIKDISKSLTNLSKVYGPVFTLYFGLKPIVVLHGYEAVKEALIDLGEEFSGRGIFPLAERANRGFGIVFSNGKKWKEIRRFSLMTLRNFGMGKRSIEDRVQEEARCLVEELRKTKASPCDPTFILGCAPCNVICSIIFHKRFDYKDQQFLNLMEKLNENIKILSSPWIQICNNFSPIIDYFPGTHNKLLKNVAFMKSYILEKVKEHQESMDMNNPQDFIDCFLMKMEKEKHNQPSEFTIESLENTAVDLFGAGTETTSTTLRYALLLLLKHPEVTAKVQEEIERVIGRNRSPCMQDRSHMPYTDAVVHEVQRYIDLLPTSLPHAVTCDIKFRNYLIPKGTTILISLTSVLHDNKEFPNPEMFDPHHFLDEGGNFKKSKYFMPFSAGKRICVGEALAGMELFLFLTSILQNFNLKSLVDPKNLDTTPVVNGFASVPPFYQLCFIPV
T5 sequence (P08684 whole entry): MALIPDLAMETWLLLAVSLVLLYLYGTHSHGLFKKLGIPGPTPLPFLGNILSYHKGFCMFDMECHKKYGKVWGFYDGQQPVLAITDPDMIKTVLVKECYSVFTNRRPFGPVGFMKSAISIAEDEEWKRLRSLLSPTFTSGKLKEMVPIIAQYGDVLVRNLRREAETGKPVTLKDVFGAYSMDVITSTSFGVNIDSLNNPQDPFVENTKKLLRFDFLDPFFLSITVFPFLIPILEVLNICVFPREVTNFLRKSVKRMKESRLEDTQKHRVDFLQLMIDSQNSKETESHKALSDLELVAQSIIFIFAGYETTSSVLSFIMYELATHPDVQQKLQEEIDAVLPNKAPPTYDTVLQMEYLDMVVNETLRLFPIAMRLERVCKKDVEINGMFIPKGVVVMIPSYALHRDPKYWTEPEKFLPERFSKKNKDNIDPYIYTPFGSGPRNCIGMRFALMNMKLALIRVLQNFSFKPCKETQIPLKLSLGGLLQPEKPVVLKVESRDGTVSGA
P-glycoprotein, sequence (P08183 whole entry): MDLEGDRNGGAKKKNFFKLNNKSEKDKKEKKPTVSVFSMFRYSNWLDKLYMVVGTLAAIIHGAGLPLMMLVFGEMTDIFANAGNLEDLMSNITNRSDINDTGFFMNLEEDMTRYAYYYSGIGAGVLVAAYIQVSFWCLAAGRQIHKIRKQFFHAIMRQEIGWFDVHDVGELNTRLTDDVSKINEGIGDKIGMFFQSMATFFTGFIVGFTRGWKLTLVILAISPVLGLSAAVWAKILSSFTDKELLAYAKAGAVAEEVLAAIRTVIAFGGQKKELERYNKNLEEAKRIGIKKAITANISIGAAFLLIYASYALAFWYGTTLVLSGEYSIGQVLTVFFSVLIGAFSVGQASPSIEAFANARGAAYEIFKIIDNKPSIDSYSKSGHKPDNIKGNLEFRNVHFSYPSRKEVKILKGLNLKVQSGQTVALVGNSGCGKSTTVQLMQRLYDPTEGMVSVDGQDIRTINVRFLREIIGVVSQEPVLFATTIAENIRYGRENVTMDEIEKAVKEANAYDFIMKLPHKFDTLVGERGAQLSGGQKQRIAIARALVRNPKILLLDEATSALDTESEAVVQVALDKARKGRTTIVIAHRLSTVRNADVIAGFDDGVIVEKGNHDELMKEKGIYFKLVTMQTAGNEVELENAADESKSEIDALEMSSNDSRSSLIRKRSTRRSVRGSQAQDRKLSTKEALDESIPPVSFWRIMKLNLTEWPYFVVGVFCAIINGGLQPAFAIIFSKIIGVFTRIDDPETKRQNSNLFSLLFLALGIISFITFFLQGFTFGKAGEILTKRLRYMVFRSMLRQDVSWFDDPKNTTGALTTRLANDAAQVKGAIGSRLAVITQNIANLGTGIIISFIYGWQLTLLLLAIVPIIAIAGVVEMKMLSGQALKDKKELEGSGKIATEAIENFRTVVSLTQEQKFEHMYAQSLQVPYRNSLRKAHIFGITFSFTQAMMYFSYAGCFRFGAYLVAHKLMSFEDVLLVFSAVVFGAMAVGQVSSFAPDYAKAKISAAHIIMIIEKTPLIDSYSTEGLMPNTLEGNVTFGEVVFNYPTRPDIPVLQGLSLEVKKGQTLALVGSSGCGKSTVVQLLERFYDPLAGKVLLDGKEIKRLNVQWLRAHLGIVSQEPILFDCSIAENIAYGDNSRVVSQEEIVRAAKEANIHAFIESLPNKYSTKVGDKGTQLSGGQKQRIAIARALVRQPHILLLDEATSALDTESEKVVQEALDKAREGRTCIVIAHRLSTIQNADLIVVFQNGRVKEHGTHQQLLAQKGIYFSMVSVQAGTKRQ

Row | Structure (SMILES) | MIC (M. bovis BCG Pasteur; [9]) | inhibition (CYP 2D6) | IC50 [1, 10] | IC50 [1, 11] | Papp A→B at 30 min, 10 μM [2] | Papp A-B [3] | Papp A→B at 30 min, 10 μM (MDR-1) | Papp B→A at 30 min, 10 μM (MDR-1) | Mean % microsome turnover ([4]; human liver microsomes, 0 min) | Mean compound remaining ([4]; human liver microsomes, 0 min) | Microsomal stability ([4]; human liver microsomes, 0 min) | Mean % microsome turnover ([4]; human liver microsomes, 15 min) | Mean compound remaining ([4]; human liver microsomes, 15 min) | Microsomal stability ([4]; human liver microsomes, 15 min) | Mean % microsome turnover ([4]; human liver microsomes, 30 min) | Mean compound remaining ([4]; human liver microsomes, 30 min) | Microsomal stability ([4]; human liver microsomes, 30 min) | Mean % microsome turnover ([4]; human liver microsomes, 60 min) | Mean compound remaining ([4]; human liver microsomes, 60 min) | MIC (M. bovis BCG Pasteur; [12]) | other results
1 | N[C@@H]1CON=C1O [D-cycloserine, reference compound] | 25 µg/mL |  |  |  |  |  |  |  |  |  |  |  |  |  |  |  |  |  |  |  | cell length (M. bovis BCG): 4.2 ± 1.0 μm
2 | Oc1ccc(Br)c2c1C(c1cccc3c1OCO3)NCC2 (stereo not shown) [Compound 35] | 60 µg/mL | 80.7% | 348 µM | 121 µg/mL | 2 to 20 ×10⁻⁶ cm/s | 3.2 cm/sec, x10-6 | 3.2 ×10⁻⁶ cm/s | 38 ×10⁻⁶ cm/s | -5.55e-15% | 100.00 | 4.60 | 3.85% | 96.15 | 4.57 | 14.54% | 85.46 | 4.45 | 30.44% | 69.56 | 172 µM | Microsomal stability ([4]; human liver microsomes, 60 min): 4.24; half-life [4]: 110 min; inhibition (CYP 2C9): 44.9%; IC50 [5]: < 111 µM; efflux ratio (P-glycoprotein): 11.9; solubility kinetic at 24 h [6]: 300 µg/mL (≈ 862 µM); inhibition (CYP 2C19): 98.2%; inhibition (CYP 1A2): 36.7%; hepatic extraction ratio [7]: > 0.6; half-life ([7]; human hepatocytes): 78.6 min; hepatocyte CLint [7]: 12.6 µL/min/1e6 cells; inhibition (CYP 3A4): 80%
3 | CO[C@H]1/C=C/O[C@@]2(C)Oc3c(C)c(O)c4c(O)c(c(/C=N/N5CCN(C)CC5)c(O)c4c3C2=O)NC(=O)/C(C)=C\C=C\[C@H](C)[C@H](O)[C@@H](C)[C@@H](O)[C@@H](C)[C@H](OC(C)=O)[C@@H]1C [Rifampicin, reference compound] | 0.05 µg/mL |  |  |  |  |  |  |  |  |  |  |  |  |  |  |  |  |  |  | 0.061 µM | MIC (M. tuberculosis H37Rv; 336 h, 2 weeks at 37°C): 0.05 µg/mL; MIC (M. tuberculosis H37Rv; value in square brackets): 0.061 µM; GIC50 RAW264.7 [8]: 700^a mg/L; MIC (M. smegmatis mc^2155): 0.1 µg/mL (≈ 0.122 µM); MIC (M. aurum): 0.1 µg/mL (≈ 0.122 µM)
4 | Oc1ccc(Br)c2c1C(Cc1ccc3c(c1)OCO3)NCC2 (stereo not shown) [Compound 28] | 20 µg/mL | 92.9% | 130 µM | 47 µg/mL | < 2 ×10⁻⁶ cm/s | 1.7 cm/sec, x10-6 | 1.7 ×10⁻⁶ cm/s | 18.8 ×10⁻⁶ cm/s | -5.33e-15% | 100.00 | 4.60 | 64.61% | 35.39 | 3.57 | 88.00% | 12.00 | 2.48 | 92.24% | 7.76 | 55 µM | t1/2 microsomes ([4]; human liver microsomes): 9.8 min; Microsomal stability ([4]; human liver microsomes, 60 min): 2.03; half-life [4]: 9.81 min; inhibition (CYP 2C9): 81.8%; IC50 [5]: < 111 µM; efflux ratio (P-glycoprotein): 11.3; solubility kinetic at 24 h [6]: 800 µg/mL (≈ 2210 µM); solubility at 24 h ([6]; read-out: aqueous solubility (class)): > 500 µg/mL; inhibition (CYP 2C19): 97.5%; inhibition (CYP 1A2): 81.4%; hepatic extraction ratio [7]: > 0.6; t1/2 hepatocytes ([7]; human hepatocytes): 23.2 min; half-life ([7]; human hepatocytes): 23.2 min; hepatocyte CLint [7]: 17.4 µL/min/1e6 cells; inhibition (CYP 3A4): 93.2%
